In data set [1] the test system is Methicillin-resistant Staphylococcus aureus (MRSA). The data set can be described thus: antibacterial activity in vitro, agar dilution method. In kind it is cell-based. The source says:
(§1) The antibacterial spectrum and in vitro antibacterial activity of the compound of the present invention
(§2) Experimental method: the agar dilution method, with reference to Clinical And Laboratory Standards Institute. Methods for Dilution Antimicrobial Susceptibility Tests for Bacteria That Grow Aerobically; Approved Standard-Seventh Edition. CLSI Document M7-A7. Vol 26, no. 2, Wayne, Pa.: Clinical and Laboratory Standards Institute, 2006.
(§3) Wherein MIC represents the minimum inhibitory concentration, MIC90 represents the 90% inhibitory concentration.
Background: In agar dilution the substance is mixed into plates at graded concentrations.

For another data set, the system named is Streptococcus pyogenes. The data set is described as above. The conditions noted are these: Table 2. It counts as cell-based.
Description: as §1, §2, §3

The subject of another data set is Escherichia coli. The data set is described as above. It counts as cell-based.
Description: as §1, §2, §3

For data set [2], the system named is Methicillin-resistant Staphycoccus epidermidis (MRSE). Described as above. It counts as cell-based. Particulars: Staphylococcus epidermidis.
Description: as §1, §2, §3

The next data set has as its system Acinetobacter baumannii. Described as above. In kind it is cell-based.
Description: as §1, §2, §3

The next data set concerns Klebsiella pneumoniae. The data set is described as above. In kind it is cell-based.
Description: as §1, §2, §3

The nature of data set [3]: in vivo pharmacokinetics experiment in rats (Test Example 2). Particulars: male, SD, rat, plasma. Here is the method: Test animals: male SD rats, weighing 230-250 g, purchased from Shanghai SLAC Laboratory Animals Co., Ltd., Certificate of Conformity: SCXK (SH) 2007-0005 22045; Six rats were tested for each compound.
Test substances: Compound 2 of the present invention, prepared in accordance with the method of Example 3; dissolved in physiological saline.
Internal standard substance: The acetonitrile solution of 50 ng/ml KBP-5747 was used as an internal standard solution in the measurement of Compound 2.
Administration of Compound 2 of the present invention: intravenous bolus injection (iv), dose: 5 mg/kg, administrating volume: 5 mL/kg; gavage (po), dose: 5 mg/kg, administrating volume: 5 mL/kg. Prior to administration help but water fasting for 12 hours, 4 hours after administration to food.
iv blood sampling time point: denoted by 0 min before administration, 5 min, 15 min, 30 min, 1 h, 2 h, 4 h, 8 h, 24 h, 30 h, 48 h after administration
po blood sampling time point: denoted by 0 min before administration, 5 min, 15 min, 30 min, 1 h, 2 h, 4 h, 8 h, 24 h, 30 h, 48 h after administration
Each time point to take around 150 μl whole blood, centrifugated at 2000×g at 4° C. for 5 minutes in a low-temperature high-speed centrifuge to separate plasma, the resulting plasma frozen was at −70° C. in a refrigerator.
Plasma samples analysis: 30 μl of plasma was taken and added 100 μl of internal standard solution, subjected to vortex at 14,000 rev/min for 5 minutes, then to centrifugation at 12,000 rpm/min for 5 minutes. The supernatant was taken and analyzed using LC-MS/MS.
Formula Absolute Bioavailability F%=[AUC]INF (po)×Dose(iv)/[AUC]INF (iv)×Dose(po)

The nature of the next data set: in vivo. The arrangement: species or system male SD rats. Particulars: male, SD, rat, 5 mg/kg. Here is the method: Test animals: male SD rats, weighing 180-280 g, purchased from Beijing Vital River Laboratory Animal Technology Co., Ltd.; animal Certificate of Conformity: SCXK (Beijing) 2006-0009. Six rats were tested for each compound. the compounds of the present invention, prepared in accordance with the methods of above Examples, dissolved in physiological saline. tigecycline, dissolved in physiological saline. Administration of the compounds of the present invention: intravenous bolus injection (iv), dose: 5 mg/kg, administrating volume: 5 mL/kg; gavage (po), dose: 5 mg/kg, administrating volume: 5 mL/kg. Administration of tigecycline: gavage (po), dose: 10 mg/kg, administrating volume: 5 mL/kg. Prior to administration help but water fasting for 16 hours, 4 hours after administration to food. Compound 9: iv blood sampling time point: denoted by 0 min before administration, 5 min, 15 min, 30 min, 1 […] after administration; po blood sampling time point: denoted by 0 min before administration, 5 min, 15 min, 30 min, 1 […] after administration; Compound 20: iv blood sampling time point: 5 min, 15 min, 30 min, 1 […] after administration; po blood sampling time point: 10 min, 30 min, 1 […] after administration; Compound 23: iv blood sampling time point: denoted by 0 min before administration, 5 min, 15 min, 30 min, 1 […] after administration; po blood sampling time point: denoted by 0 min before administration, 5 min, 15 min, 30 min, 1 […] after administration; Tigecycline: iv blood sampling time point: 5 min, 15 min, 30 min, 1 h, 2 h, 4 h, 6 h, 8 h after administration; po blood sampling time point: 10 min, 30 min, 1 […] after administration. Each time point is taken around 100 μl whole blood and placed in a heparinized tube, centrifugated at 8000 rpm/min at 4° C. for 6 minutes in a low-temperature high-speed centrifuge to separate plasma, the resulting plasma was frozen at -80° C. refrigerator. Plasma samples analysis: 20 μl of plasma was taken and added 200 μl of internal standard solution, subjected to vortex for 3 minutes, then to centrifugation at 12,000 rpm/min for 5 minutes. 100 μl of supernatant was taken and analyzed using LC-MS/MS. Formula Absolute Bioavailability F%=[AUC](po)×Dose(iv)/[AUC](iv)×Dose(po)

A further data set concerns Klebsiella oxytoca. The data set can be described thus: antibacterial activity in vitro, agar dilution method. In kind it is cell-based. The conditions noted are these: Table 3.
Description: as §1, §2, §3

Setting [4] is: Table 2, agar dilution, read-out: antibacterial activity MIC, Acinetbacter baumannii.

≈ marks a conversion by molar mass, not a printed value. Where two headings read alike, the source gives them in different places.

A word on the MIC: it is the smallest concentration in the dilution series that meets the test's criterion for growth inhibition. As a reminder, the AUC(0-inf) is total exposure, with the tail of the curve extrapolated. As usually defined, the clearance is a measure of how efficiently the substance is removed, as volume per time. A low value points to inefficient removal. As usually defined, the half-life is the time needed for the level to fall by half in the phase considered. The bioavailability is the share of a dose that reaches the circulation, judged against a reference dose that is usually intravenous. What is called Cmax is the maximum level reached in the sampled fluid or tissue. In general, Tmax refers to the time at which the peak concentration occurs. Take `CN(C)c1cc(CNC2CC(F)(F)C2)c(O)c2c1C[C@H]1C[C@H]3[C@H](N(C)C)C(O)=C(C(N)=O)C(=O)[C@@]3(O)C(O)=C1C2=O` [Compound 2, (4S,4aS,5aR,12aS)-9-((3,3-difluorocyclobutylamino)methyl)-4,7-bis(dimethylamino)-3,10,12,12a-tetrahydroxy-1,1′-dioxo-1,4,4a,5,5a,6,11,12a-octahydrotetracene-2-carboxamide]: the MIC was 0.5 µg/mL (≈ 0.867 µM) in data set [1] (Table 2, agar dilution); 0.125 µg/mL (≈ 0.217 µM) against Streptococcus pyogenes; 1 µg/mL (≈ 1.73 µM) against Escherichia coli (Table 2); 0.25 µg/mL (≈ 0.434 µM) in data set [2] (Table 2); 0.5 µg/mL (≈ 0.867 µM) in the data set on Acinetobacter baumannii (setting [4]); 4 µg/mL (≈ 6.94 µM) with Klebsiella pneumoniae (Table 2). Moreover, the AUC(0-inf) was 2290 ng·h/mL in data set [3] (iv, 5 mg/kg) and 777 ng·h/mL in data set [3] (po (gavage), 5 mg/kg). The same molecule showed a clearance in data set [3] (iv, 5 mg/kg) of 37.2 mL/min/kg. Besides, the half-life is 4.07 h in [3] (iv, 5 mg/kg) and 2.32 h in [3] (po (gavage), 5 mg/kg). The Vd in [3] (iv, 5 mg/kg, read-out: Vss) stood at 5.12 L/kg. Also, in data set [3] (po 5 mg/kg vs iv 5 mg/kg, read-out: F % (absolute bioavailability)), the bioavailability amounted to 33.9%. The Cmax in data set [3] (po (gavage), 5 mg/kg) amounted to 251 ng/mL. Besides, the Tmax in data set [3] (po (gavage), 5 mg/kg) amounted to 1 h.

On to `CN(C)c1cc(CNC2CC3(CC3)C2)c(O)c2c1C[C@H]1C[C@H]3[C@H](N(C)C)C(O)=C(C(N)=O)C(=O)[C@@]3(O)C(O)=C1C2=O` [Compound 3, (4S,4aS,5aR,12aS)-9-((spiro[2.3]hexan-5-ylamino)methyl)-4,7-bis(dimethylamino)-3,10,12,12a-tetrahydroxy-1,1′-dioxo-1,4,4a,5,5a,6,11,12a-octahydrotetracene-2-carboxamide], for which the MIC in data set [1] (Table 2, agar dilution) was 0.5 µg/mL (≈ 0.882 µM); in the data set on Streptococcus pyogenes it was 0.06 µg/mL (≈ 0.106 µM); against Escherichia coli (Table 2), 1 µg/mL (≈ 1.76 µM); in data set [2] (Table 2), 0.5 µg/mL (≈ 0.882 µM); in the data set with Acinetobacter baumannii (setting [4]), 4 µg/mL (≈ 7.06 µM); with Klebsiella pneumoniae (Table 2) it was 2 µg/mL (≈ 3.53 µM).

`CN(C)c1cc(CNCC2CC(F)(F)C2)c(O)c2c1C[C@H]1C[C@H]3[C@H](N(C)C)C(O)=C(C(N)=O)C(=O)[C@@]3(O)C(O)=C1C2=O` [Compound 10, (4S,4aS,5aR,12aS)-9-(((3,3-difluorocyclobutyl)methylamino)methyl)-4,7-bis(dimethylamino)-3,10,12,12a-tetrahydroxy-1,11-dioxo-1,4,4a,5,5a,6,11,12a-octahydrotetracene-2-carboxamide]: the MIC was 1 µg/mL (≈ 1.69 µM) in [1] (Table 2, agar dilution); 0.125 µg/mL (≈ 0.212 µM) against Streptococcus pyogenes; 1 µg/mL (≈ 1.69 µM) against Escherichia coli (Table 2); 0.5 µg/mL (≈ 0.847 µM) in [2] (Table 2); 4 µg/mL (≈ 6.77 µM) with Acinetobacter baumannii (setting [4]); 2 µg/mL (≈ 3.39 µM) in the data set with Klebsiella pneumoniae (Table 2).

As a reminder, the AUC(0-t) is the area under the concentration-time curve up to a stated or last time point. High values mean high exposure, low ones low exposure. In “in vivo” (iv), `CN(C)c1cc(CN2CCC3(CC2)CC3)c(O)c2c1C[C@H]1C[C@H]3[C@H](N(C)C)C(O)=C(C(N)=O)C(=O)[C@@]3(O)C(O)=C1C2=O` [Compound 20, (4S,4aS,5aR,12aS)-9-(6-azaspiro[2.5]octan-6-ylmethyl)-4,7-bis(dimethylamino)-3,10,12,12a-tetrahydroxy-1,1′-dioxo-1,4,4a,5,5a,6,11,12a-octahydrotetracene-2-carboxamide] gave an AUC(0-t) of 11600 ng·h/mL, a Vd of 2.22 L/kg, a clearance of 7.33 mL/min/kg and a half-life of 4.98 h. In the data set “in vivo” (po), the AUC(0-t) worked out at 605 ng·h/mL, the highest level (Cmax) was 116 ng/mL, the Tmax was found to be 2 h and the bioavailability came to 5.22%. Also, in data set [1] (Table 3, agar dilution), the minimum inhibitory concentration (MIC) came to 0.5 µg/mL (≈ 0.861 µM). The molecule further displayed an MIC against Klebsiella oxytoca of 1 µg/mL (≈ 1.72 µM). The same molecule had an MIC with Escherichia coli (Table 3) of 0.5 µg/mL (≈ 0.861 µM). Besides, in [2] (Table 3), the MIC was 1 µg/mL (≈ 1.72 µM). The minimum inhibitory concentration (MIC) in the data set with Acinetobacter baumannii (Table 3, agar dilution, read-out: antibacterial activity MIC, Acinetobacter baumannii) was 1 µg/mL (≈ 1.72 µM). Further, the MIC in the data set with Klebsiella pneumoniae (Table 3) was found to be 2 µg/mL (≈ 3.44 µM).

These data come from patent publication US9365499B2, “9-aminomethyl substituted tetracycline compounds” (KBP Biosciences Co., Ltd., priority 2011, dated 2016).
